pIC50: −log10 of the molar value.
Legend:
human TASK-1 = human TASK-1 (Homo sapiens (Human), UniProt O14649); assay: Inhibition of recombinant TASK-1 in stably transfected CHO cells (voltage-sensitive dye, KCl depolarization); assay type: cell-based; conditions: depolarization by 40 mM potassium chloride
Experimental: (§1) B-2. Inhibition of Recombinant TASK-1 and TASK-3 In Vitro
(§2) The investigations on the inhibition of the recombinant TASK-1 and TASK-3 channels were conducted using stably transfected CHO cells. The compounds according to the invention were tested in this case by application of 40 mM potassium chloride in the presence of a voltage-sensitive dye according to the method described in detail in the following references [Whiteaker et al., Validation of FLIPR membrane potential dye for high-throughput screening of potassium channel modulators, J. Biomol. Screen. 6 (5), 305-312 (2001); Molecular Devices FLIPR Application Note: Measuring membrane potential using the FLIPR® membrane potential assay kit on Fluorometric Imaging Plate Reader (FLIPR®) systems, http://www.moleculardevices.com/reagents-supplies/assay-kits/ion-channels/flipr-membrane-potential-assay-kits]. The activity of the test substances was determined as their ability to inhibit a depolarization induced in the recombinant cells by 40 mM potassium chloride. The concentration which can block half of this depolarization is referred to as IC50.

human TASK-3 = human TASK-3 (Homo sapiens (Human), UniProt Q9NPC2); assay: Inhibition of recombinant TASK-3 in stably transfected CHO cells (voltage-sensitive dye, KCl depolarization); assay type: cell-based; conditions: depolarization by 40 mM potassium chloride
Experimental: as §1, §2

Chain of human TASK-3 (Q9NPC2 whole entry): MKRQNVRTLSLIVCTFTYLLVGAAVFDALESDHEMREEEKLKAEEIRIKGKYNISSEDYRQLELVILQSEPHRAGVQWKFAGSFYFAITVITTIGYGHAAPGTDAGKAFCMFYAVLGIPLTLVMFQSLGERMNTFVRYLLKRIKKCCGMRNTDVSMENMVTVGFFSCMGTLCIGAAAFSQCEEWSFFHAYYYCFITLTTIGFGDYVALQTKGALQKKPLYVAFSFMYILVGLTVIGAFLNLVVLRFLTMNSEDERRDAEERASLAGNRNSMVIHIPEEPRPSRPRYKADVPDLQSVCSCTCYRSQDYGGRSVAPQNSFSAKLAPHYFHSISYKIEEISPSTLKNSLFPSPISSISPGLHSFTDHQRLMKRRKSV
Chain of human TASK-1 (O14649 whole entry): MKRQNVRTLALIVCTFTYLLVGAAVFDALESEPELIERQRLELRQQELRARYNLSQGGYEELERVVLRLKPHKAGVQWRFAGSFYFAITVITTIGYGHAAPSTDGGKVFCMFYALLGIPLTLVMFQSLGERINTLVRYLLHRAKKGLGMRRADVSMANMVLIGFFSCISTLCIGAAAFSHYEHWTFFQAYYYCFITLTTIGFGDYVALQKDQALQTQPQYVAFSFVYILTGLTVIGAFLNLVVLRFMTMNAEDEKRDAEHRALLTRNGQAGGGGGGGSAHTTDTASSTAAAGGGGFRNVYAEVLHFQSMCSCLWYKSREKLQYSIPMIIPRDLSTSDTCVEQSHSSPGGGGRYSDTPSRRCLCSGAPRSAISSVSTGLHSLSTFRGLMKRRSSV

SMILES | pIC50 (human TASK-1) | pIC50 (human TASK-3)
Cc1scnc1C(=O)N1C2CCC1CN(Cc1c(-c3ccc(Cl)cc3)nc3ncccn13)C2 [Example 59] | 5.52 | 7.41
COc1cccc(C(=O)N2CC3CCC2CN3Cc2c(-c3ccc(Cl)cc3)nc3ncccn23)n1 (centres unmarked) [Example 44] | 6.00 | 6.72
COc1cccc(C(=O)N2C3CCC2CN(Cc2c(-c4ccc(Cl)cc4)nc4ncccn24)C3)c1 [Example 36] | 6.51 | 7.10
CC(C)c1ccc(-c2nc3ncccn3c2CN2CC3CCC(C2)N3C(=O)c2ccccc2F)cc1 [Example 64] | 5.96 | 8.08
CC(C)c1ccc(-c2nc3ncccn3c2CN2CC3CCC2CN3C(=O)c2cccc(OC(F)F)n2)cc1 (centres unmarked) [Example 76] | 4.89 | 7.25
Cc1sc(C(=O)N2C3CCC2CN(Cc2c(-c4ccc(Cl)cc4)nc4ncccn24)C3)nc1Br [Example 52] | 5.89 | 7.28
COc1ccc(Cl)c(C(=O)N2CC3CCC2CN3Cc2c(-c3ccc(C(C)C)cc3)nc3ncccn23)n1 (centres unmarked) [Example 69] | 5.55 | 7.66
COc1ccc(F)c(C(=O)N2C3CCC2CN(Cc2c(-c4ccc(Br)cc4)nc4ncccn24)C3)n1 [Example 82] | 6.17 | 7.43
O=C(c1nc(C(F)(F)F)cs1)N1C2CCC1CN(Cc1c(-c3ccc(Cl)cc3)nc3ncccn13)C2 [Example 60] | 6.17 | 6.37
Cc1ocnc1C(=O)N1C2CCC1CN(Cc1c(-c3ccc(Cl)cc3)nc3ncccn13)C2 [Example 48] | 6.40 | 7.64
COc1cccc(C(=O)N2CC3CCC2CN3Cc2c(-c3ccc(Cl)cc3)nc3ncccn23)c1 (centres unmarked) [Example 38] | 5.02 | 6.49
O=C(OC1CCCCC1)N1C2CCC1CN(Cc1c(-c3ccc(Cl)cc3)nc3ncccn13)C2 [Example 128, cyclohexyl 3-{[2-(4-chlorophenyl)imidazo[1,2-a]pyrimidin-3-yl]methyl}-3,8-diazabicyclo[3.2.1]octane-8-carboxylate] | 5.70 | 6.96
O=C(Nc1c(Cl)cccc1Cl)N1C2CCC1CN(Cc1c(-c3ccc(Cl)cc3)nc3ncccn13)C2 [Example 91, 3-{[2-(4-chlorophenyl)imidazo[1,2-a]pyrimidin-3-yl]methyl}-N-(2,6-dichlorophenyl)-3,8-diazabicyclo[3.2.1]octane-8-carboxamide] | 4.70 | 6.39
COc1ccc(C)c(C(=O)N2CC3CCC2CN3Cc2c(-c3ccc(C(C)C)cc3)nc3ncccn23)n1 (centres unmarked) [Example 78] | 5.42 | 7.62
COc1ccc(Cl)c(C(=O)N2C3COCC2CN(Cc2c(-c4ccc(Cl)cc4)nc4ncccn24)C3)n1 [Example 14, (3-Chloro-6-methoxypyridin-2-yl)(7-{[2-(4-chlorophenyl)imidazo[1,2-a]pyrimidin-3-yl]methyl}-3-oxa-7,9-diazabicyclo[3.3.1]non-9-yl)methanone] | 5.12 | 6.77
CC(C)c1ccc(-c2nc3ncccn3c2CN2CC3CCC2CN3C(=O)c2ncoc2C2CC2)cc1 (centres unmarked) [Example 70] | 5.72 | 7.70
Cc1ccc(C)c(NC(=O)N2C3CCC2CN(Cc2c(-c4ccc(Cl)cc4)nc4ncccn24)C3)c1 [Example 99, 3-{[2-(4-chlorophenyl)imidazo[1,2-a]pyrimidin-3-yl]methyl}-N-(2,5-dimethylphenyl)-3,8-diazabicyclo[3.2.1]octane-8-carboxamide] | 4.52 | 6.12
O=C(Nc1ccccc1F)N1C2CCC1CN(Cc1c(-c3ccc(Cl)cc3)nc3ncccn13)C2 [Example 93, 3-{[2-(4-chlorophenyl)imidazo[1,2-a]pyrimidin-3-yl]methyl}-N-(2-fluorophenyl)-3,8-diazabicyclo[3.2.1]octane-8-carboxamide] | 4.92 | 6.59
COc1ccc(Cl)c(C(=O)N2C3CCC2CN(Cc2c(-c4ccc(C5CC5)cc4)nc4ncccn24)C3)n1 [Example 136, (3-chloro-6-methoxypyridin-2-yl)(3-{[2-(4-cyclopropylphenyl)imidazo[1,2-a]pyrimidin-3-yl]methyl}-3,8-diazabicyclo[3.2.1]octan-8-yl)methanone] | 6.49 | 7.39

SMILES | pIC50 (human TASK-1) | pIC50 (human TASK-3)
CCN(C(=O)N1C2CCC1CN(Cc1c(-c3ccc(Cl)cc3)nc3ncccn13)C2)c1ccccc1 [Example 114, 3-{[2-(4-chlorophenyl)imidazo[1,2-a]pyrimidin-3-yl]methyl}-N-ethyl-N-phenyl-3,8-diazabicyclo[3.2.1]octane-8-carboxamide] | 5.17 | 6.85
CNc1cccc(C(=O)N2C3CCC2CN(Cc2c(-c4ccc(C(C)C)cc4)nc4ncccn24)C3)n1 [Example 62] | 5.16 | 7.15
COc1ccc(F)c(C(=O)N2C3COCC2CN(Cc2c(-c4ccc(C(C)C)cc4)nc4ncccn24)C3)n1 [Example 18, (3-Fluoro-6-methoxypyridin-2-yl)(7-{[2-(4-isopropylphenyl)imidazo[1,2-a]pyrimidin-3-yl]methyl}-3-oxa-7,9-diazabicyclo[3.3.1]non-9-yl)methanone] | 6.04 | 8.07
O=C(c1cccc(OC(F)F)n1)N1C2CCC1CN(Cc1c(-c3ccc(C4CC4)cc3)nc3ncccn13)C2 [Example 138, (3-{[2-(4-cyclopropylphenyl)imidazo[1,2-a]pyrimidin-3-yl]methyl}-3,8-diazabicyclo[3.2.1]octan-8-yl)[6-(difluoromethoxy)pyridin-2-yl]methanone] | 5.49 | 6.54
O=C(c1ccccc1F)N1C2CCC1CN(Cc1c(-c3ccc(Cl)cc3)nc3ncccn13)C2 [Example 32] | 6.43 | 7.54
Cc1nc(C)c(C(=O)N2C3CCC2CN(Cc2c(-c4ccc(Cl)cc4)nc4ncccn24)C3)o1 [Example 50] | 5.48 | 6.37
CC(C)N(C)C(=O)N1C2CCC1CN(Cc1c(-c3ccc(Cl)cc3)nc3ncccn13)C2 [Example 115, 3-{[2-(4-chlorophenyl)imidazo[1,2-a]pyrimidin-3-yl]methyl}-N-isopropyl-N-methyl-3,8-diazabicyclo[3.2.1]octane-8-carboxamide] | 5.13 | 6.48
O=C(c1cncs1)N1C2CCC1CN(Cc1c(-c3ccc(Cl)cc3)nc3ncccn13)C2 [Example 55] | 5.54 | 6.77
COc1cccc(C(=O)N2C3COCC2CN(Cc2c(-c4ccc(Cl)cc4)nc4ncccn24)C3)c1 [Example 31] | 5.15 | 6.85
CCOC(=O)N1C2CCC1CN(Cc1c(-c3ccc(Cl)cc3)nc3ncccn13)C2 [Example 124, ethyl 3-{[2-(4-chlorophenyl)imidazo[1,2-a]pyrimidin-3-yl]methyl}-3,8-diazabicyclo[3.2.1]octane-8-carboxylate] | 6.10 | 7.77
O=C(c1ncoc1C1CC1)N1C2CCC1CN(Cc1c(-c3ccc(C4CC4)cc3)nc3ncccn13)C2 [Example 139, (5-cyclopropyl-1,3-oxazol-4-yl)(3-{[2-(4-cyclopropylphenyl)imidazo[1,2-a]pyrimidin-3-yl]methyl}-3,8-diazabicyclo[3.2.1]octan-8-yl)methanone] | 5.35 | 6.33
COc1cccc(C(=O)N2CC3CCC2CN3Cc2c(-c3ccc(C(C)C)cc3)nc3ncccn23)n1 (centres unmarked) [Example 73] | 5.04 | 7.09
O=C(C1CCCC1)N1C2COCC1CN(Cc1c(-c3ccc(Cl)cc3)nc3ncccn13)C2 [Example 17, (7-{[2-(4-Chlorophenyl)imidazo[1,2-a]pyrimidin-3-yl]methyl}-3-oxa-7,9-diazabicyclo[3.3.1]non-9-yl)(cyclopentyl)methanone] | 5.92 | 7.48
CC(C)(C)OC(=O)N1C2COCC1CN(Cc1c(-c3ccc(Cl)cc3)nc3ncccn13)C2 [Example 1, tert-Butyl 7-{[2-(4-chlorophenyl)imidazo[1,2-a]pyrimidin-3-yl]methyl}-3-oxa-7,9-diazabicyclo[3.3.1]nonane-9-carboxylate] | 5.77 | 6.40
CC(C)(C)OC(=O)N1C2CCC1CN(Cc1c(-c3ccc(C4CC4)cc3)nc3ncccn13)C2 [Example 132, tert-Butyl 3-{[2-(4-cyclopropylphenyl)imidazo[1,2-a]pyrimidin-3-yl]methyl}-3,8-diazabicyclo[3.2.1]octane-8-carboxylate] | 5.77 | 6.39
O=C(N1CCCC1)N1C2CCC1CN(Cc1c(-c3ccc(Cl)cc3)nc3ncccn13)C2 [Example 113, (3-{[2-(4-chlorophenyl)imidazo[1,2-a]pyrimidin-3-yl]methyl}-3,8-diazabicyclo[3.2.1]oct-8-yl)(pyrrolidin-1-yl)methanone] | 5.96 | 7.21
CN(C(=O)N1C2CCC1CN(Cc1c(-c3ccc(Cl)cc3)nc3ncccn13)C2)c1ccccc1 [Example 108, 3-{[2-(4-chlorophenyl)imidazo[1,2-a]pyrimidin-3-yl]methyl}-N-methyl-N-phenyl-3,8-diazabicyclo[3.2.1]octane-8-carboxamide] | 5.15 | 7.05
COC(=O)N1C2CCC1CN(Cc1c(-c3ccc(Cl)cc3)nc3ncccn13)C2 [Example 123, methyl 3-{[2-(4-chlorophenyl)imidazo[1,2-a]pyrimidin-3-yl]methyl}-3,8-diazabicyclo[3.2.1]octane-8-carboxylate] | 4.85 | 6.64
